Measurements published in US7223759B2, “Antibacterial 3,5-diaminopiperidine-substituted aromatic and heteroaromatic compounds” (Anadys Pharmaceuticals, Inc., priority 2003, dated 2007).
Where two headings read alike, the source gives them in different places.

Tested on: Escherichia coli (ATCC25922) or Staphylococcus aureus (ATCC25923)
Assay: Antibacterial MIC, microdilution method in Mueller-Hinton medium
Format: cell-based
Conditions: for MIC: Escherichia coli, 18 h, read-out: Potency (MIC)
Outline: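 Two-fold serial dilutions from 64 to 0.5 μg/ml, in duplicate, by broth microdilution in Mueller-Hinton medium (NCCLS M7-A5). MIC taken as the lowest concentration preventing visible growth after 18 h at 35° C.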

[1] = MIC in E. coli or S. aureus, two-fold serial dilutions 64 to 0.5 μg/ml in duplicate, 18 hours of incubation at 35° C.

| MIC [1] [µg/mL] | SMILES | MIC [µg/mL] | other results |
| --- | --- | --- | --- |
|  | N[C@@H]1C[C@H](N)CN(c2nc(Nc3ccc(NC(=O)c4ccc(Cl)cc4)c(O)c3)nc(N3CCC(N4CCCC4)CC3)n2)C1 [4-Chloro-N-{4-[4-((3S,5R)-3,5-diamino-piperidin-1-yl)-6-(4-pyrrolidin-1-yl-piperidin-1-yl)-[1,3,5]triazin-2-ylamino]-2-hydroxy-phenyl}-benzamide] | < 64 |  |
|  | N[C@@H]1C[C@H](N)CN(c2nc(Nc3ccc(NC(=O)c4ccc(Cl)cc4)c(O)c3)nc(N3C[C@H](O)C[C@@H](O)C3)n2)C1 [4-Chloro-N-{4-[4-((3S,5R)-3,5-diamino-piperidin-1-yl)-6-((3R,5R)-3,5-dihydroxy-piperidin-1-yl)-[1,3,5]triazin-2-ylamino]-2-hydroxy-phenyl}-benzamide] | < 64 |  |
|  | N[C@@H]1C[C@H](N)CN(c2nc(Nc3ccc(NC(=O)c4ccc(Cl)cc4)c(O)c3)nc(NC3CCCNC3)n2)C1 (stereo partly drawn) [4-Chloro-N-{4-[4-((3S,5R)-3,5-diamino-piperidin-1-yl)-6-(piperidin-3-ylamino)-[1,3,5]triazin-2-ylamino]-2-hydroxy-phenyl}-benzamide] | < 16 |  |
| < 64 | N[C@@H]1C[C@H](N)CN(c2nc(NCCN3CCNC3=O)nc(Nc3ccc(NC(=O)c4ccc(Cl)cc4)c(O)c3)n2)C1 [4-Chloro-N-{4-[4-((3S,5R)-3,5-diamino-piperidin-1-yl)-6-[2-(2-oxo-imidazolidin-1-yl)-ethylamino]-[1,3,5]triazin-2-ylamino}-2-hydroxy-phenyl)-benzamide] |  |  |
|  | N[C@@H]1C[C@H](N)CN(c2nc(Nc3ccc(NC(=O)c4ccc(Cl)cc4)c(O)c3)nc(N3CCNCC3)n2)C1 [4-Chloro-N-{4-[4-((3S,5R)-3,5-diamino-piperidin-1-yl)-6-piperazin-1-yl-[1,3,5]triazin-2-ylamino]-2-hydroxy-phenyl}-benzamide] | < 16 |  |
| > 64 | CCOC(=O)c1ccc(Nc2nc(N3C[C@H](N)C[C@H](N)C3)nc(N3C[C@H](N)C[C@H](N)C3)n2)cc1 [4-[4,6-Bis-((3R,5S)-3,5-diamino-piperidin-1-yl)-[1,3,5]triazin-2-ylamino]-benzoic acid ethyl ester] |  |  |
| > 64 | Cc1cc(Br)ccc1Nc1nc(N2CCCCC2)nc(N2CCCCC2)n1.Cl [4-[4,6-Bis-((3R,5S)-3,5-diamino-piperidin-1-yl)-[1,3,5]triazin-2-ylammino]-benzoic acid methyl ester] |  |  |
| < 64 | Cl.N[C@@H]1C[C@H](N)CN(c2nc(N3C[C@H](N)C[C@H](N)C3)nc(N3CCc4cc(Br)ccc43)n2)C1 [4-[4-(4,6-Bis-((3R,5S)-3,5-diamino-piperidin-1-yl)-[1,3,5]triazin-2-yl)-piperiazin-1-yl]-phenol] |  |  |
| > 64 | CC(=O)N1CCN(c2nc(Nc3ccc(S(=O)(=O)Nc4ccc5cn[nH]c5c4)cc3)nc(N3C[C@H](N)C[C@H](N)C3)n2)CC1 [4-[4-(4-Acetyl-piperazin-1-yl)-6-((3R,5S)-3,5-diamino-piperidin-1-yl)-[1,3,5]triazin-2-ylamino]-N-(1H-indazol-6-yl)-benzenesulfonamide] |  |  |
|  | NC[C@H]1[C@@H](O)CCN1c1nc(Nc2ccc(C(=O)Oc3ccccc3)c(O)c2)nc(N2C[C@H](N)C[C@H](N)C2)n1 [4-[4-((2S,3S)-2-Aminomethyl-3-hydroxy-pyrrolidin-1-yl)-6-((3R,5S)-3,5-diamino-piperidin-1-yl)-[1,3,5]triazin-2-ylamino]-2-hydroxy-benzoic acidphenylester] |  | Potency (MIC) [1]: − (− means MIC>64 μg/ml in E. coli or S. aureus) |
|  | NC[C@@H]1C[C@@H](O)CN1c1nc(Nc2ccc(S(=O)(=O)Nc3ccc4cn[nH]c4c3)cc2)nc(N2C[C@H](N)C[C@H](N)C2)n1 [4-[4-((2S,4R)-2-Aminomethyl-4-hydroxy-pyrrolidin-1-yl)-6-((3R,5S)-3,5-diamino-piperidin-1-yl)-[1,3,56]triazin-2-ylamino]-N-(1H-indazol-6-yl)-benzenesulfonamide] |  | Potency (MIC) [1]: − (− means MIC>64 μg/ml in E. coli or S. aureus) |
|  | NC[C@@H]1C[C@H](N)CN1c1nc(Nc2ccc(C(=O)Oc3ccccc3)c(O)c2)nc(N2C[C@H](N)C[C@H](N)C2)n1 [4-[4-((2S,4S)-4-Amino-2-aminomethyl-pyrrolidin-1-yl)-6-((3R,5S)-3,5-diamino-piperidin-1-yl)-[1,3,5]triazin-2-ylamino]-2-hydroxy-benzoic acid phenyl ester] | < 16 |  |
|  | NC[C@@H]1C[C@H](N)CN1c1nc(Nc2ccc(S(=O)(=O)Nc3ccc4cn[nH]c4c3)cc2)nc(N2C[C@H](N)C[C@H](N)C2)n1 [4-[4-((2S,4S)-4-Amino-2-aminomethyl-pyrrolidin-1-yl)-6-((3R,5S)-3,5-diamino-piperidin-1-yl)-[1,3,5]triazin-2-ylamino]-N-(1H-indazol-6-yl)-benzenesulfonamide] | > 64 |  |
|  | NC(=O)c1ccc(Nc2nc(N3C[C@H](N)C[C@H](N)C3)nc(N3C[C@@H](N)C[C@H]3CO)n2)cc1O [4-[4-((2S,4S)-4-Amino-2-hydroxymethyl-pyrrolidin-1-yl)-6-((3R,5S)-3,5-diamino-piperidin-1-yl)-[1,3,5]triazin-2-ylamino]-2-hydroxy-benzamide] | > 64 |  |
|  | N[C@@H]1C[C@H](N)CN(c2nc(Nc3ccc(S(=O)(=O)Nc4ccc5cn[nH]c5c4)cc3)nc(N3C[C@@H](N)C[C@H]3CO)n2)C1 [4-[4-((2S,4S)-4-Amino-2-hydroxymethyl-pyrrolidin-1-yl)-6-((3R,5S)-3,5-diamino-piperidin-1-yl)-[1,3,5]triazin-2-ylamino]-N-(1H-indazol-6-yl)-benzenesulfonamide] | > 64 |  |
|  | NC[C@@H]1CN(c2nc(Nc3ccc(C(=O)Oc4ccccc4)c(O)c3)nc(N3C[C@H](N)C[C@H](N)C3)n2)CC[C@@H]1O [4-[4-((3R,4S)-3-Aminomethyl-4-hydroxy-piperidin-1-yl)-6-((3R,5S)-3,5-diamino-piperidin-1-yl)-[1,3,5]triazin-2-ylamino]-2-hydroxy-benzoic acidphenylester] |  | Potency (MIC) [1]: − (− means MIC>64 μg/ml in E. coli or S. aureus) |
|  | NC[C@@H]1CN(c2nc(Nc3ccc(S(=O)(=O)Nc4ccc5cn[nH]c5c4)cc3)nc(N3C[C@H](N)C[C@H](N)C3)n2)CC[C@@H]1O [4-[4-((3R,4S)-3-Aminomethyl-4-hydroxy-piperidin-1-yl)-6-((3RE,5S)-3,5-diamino-piperidin-1-yl)-[1,3,5]triazin-2-ylamino]-N-(1H-indazol-6-yl)-benzenesulfonamide] |  | Potency (MIC) [1]: − (− means MIC>64 μg/ml in E. coli or S. aureus) |
|  | NC[C@@H]1C[C@H](CN)CN(c2nc(Nc3ccc(C(=O)Oc4ccccc4)c(O)c3)nc(N3C[C@H](N)C[C@H](N)C3)n2)C1 [4-[4-((3R,5S)-3,5-Bis-(aminomethyl)-piperidin-1-yl)-6-((3R,5S)-3,5-diamino-piperidin-1-yl)-[1,3,5]triazin-2-ylamino]-2-hydroxy-benzoic acid phenyl ester] | < 64 |  |
|  | NC[C@@H]1C[C@H](CN)CN(c2nc(Nc3ccc(S(=O)(=O)Nc4ccc5cn[nH]c5c4)cc3)nc(N3C[C@H](N)C[C@H](N)C3)n2)C1 [4-[4-((3R,5S)-3,5-Bis-(aminomethyl)-piperidin-1-yl)-6-((3R,5S)-3,5-diamino-piperidin-1-yl)-[1,3,5]triazin-2-ylamino]-N-(1H-indazol-6-yl)-benzenesulfonamide] | > 64 |  |
|  | N[C@@H]1C[C@H](N)CN(c2nc(Nc3ccc(S(=O)(=O)Nc4ccc5cn[nH]c5c4)cc3)nc(N3C[C@@H](N)[C@@H](N)C3)n2)C1 [4-[4-((3R,5S)-3,5-Diamino-piperidin-1-yl)-6-((3R,4S)-3,4-diamino-pyrrolidin-1-yl)-[1,3,5]triazin-2-ylamino]-N-(1H-indazol-6-yl)-benzenesulfonamide] | > 64 |  |
| < 16 | COc1nc(Nc2ccc(C(=O)Oc3ccccc3)c(O)c2)nc(N2CCCCC2)n1.Cl [4-[4-((3R,5S)-3,5-Diamino-piperidin-1-yl)-6-methoxy-[1,3,5]triazin-2-ylamino]-2-hydroxy-benzoic acidphenylester] |  |  |
|  | COc1nc(Nc2ccc(S(=O)(=O)Nc3ccc4cn[nH]c4c3)cc2)nc(N2C[C@H](N)C[C@H](N)C2)n1 [4-[4-((3R,5S)-3,5-Diamino-piperidin-1-yl)-6-methoxy-[1,3,5]triazin-2-ylamino]-N-(1H-indazol-6-yl)-benzenesulfonamide] | > 64 |  |
| < 64 | O=S(=O)(Nc1ccc2cn[nH]c2c1)c1ccc(Nc2nc(N3CCCCC3)nc(N3CCN(c4ccncc4)CC3)n2)cc1 [4-[4-((3S,5R)-3,5-DSiamino-piperidin-1-yl)-6-(4-pyridin-4-yl-piperazin-1-yl)-[1,3,5]triazin-2-ylamino]-N-(1H-indazol-6-yl)-benzenesulfonamide] |  |  |
|  | N[C@@H]1C[C@H](N)CN(c2nc(NCCCn3ccnc3)nc(Nc3ccc(S(=O)(=O)Nc4ccc5cn[nH]c5c4)cc3)n2)C1 [4-[4-((3S,5R)-3,5-Diamino-piperidin-1-yl)-6-(3-imidazol-1-yl-propylamino)-[1,3,5]triazin-2-ylamino]-N-(1H-indazol-6-yl)-benzenesulfonamide] | > 64 |  |
| > 64 | N[C@@H]1C[C@H](N)CN(c2nc(Nc3ccc(S(=O)(=O)Nc4ccc5cn[nH]c5c4)cc3)nc(N3CCC(N4CCCC4)CC3)n2)C1 [4-[4-((3S,5R)-3,5-Diamino-piperidin-1-yl)-6-(4-pyrrolidin-1-yl-piperidin-1-yl)-[1,3,5]triazin-2-ylamino]-N-(1H-indazol-6-yl)-benzenesulfonamide] |  |  |
| < 64 | Cl.O=C(Oc1ccccc1)c1ccc(Nc2nc(N3CCCCC3)nc(N3CCCC3)n2)cc1O [4-[4-((3S,5R)-3,5-Diamino-piperidin-1-yl)-6-((3R,4S)-3,4-dihydroxy-pyrrolidin-1-yl)-[1,3,5]triazin-2-ylamino]-2-hydrooxy-benzoic acidphenyl ester] |  |  |
